In US20170253601A1, “Substituted Pyrrolidine Compounds” (EPIZYME, INC., priority 2014, published 2017):

Each compound was assayed against T1, SMYD2 (Homo sapiens, UniProt Q9NRG4) (assay: SMYD2 Biochemical Assay (3H-SAM, biotinylated peptide substrate, Flashplate)). Details: IC50 values are an average of n = 1 to n = 50; read-out: SMYD2 Biochem IC50 (μM)*.
T1 construct: Full length SMYD2 (NP 064582.2) was cloned; His6 (N, cleaved yes); FLAG (N); made in house; host or cells: Sf9 insect cells
Outline: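 Full-length His/FLAG-tagged SMYD2 expressed in Sf9 cells with tag cleaved, 1.5 nM, pre-incubated 30 min at room temperature with compound, then 10 nM 3H-SAM and 60 nM biotinylated peptide added. Buffer 20 mM Bicine pH 7.6, 1 mM TCEP, 0.005% BSG, 0.002% Tween20, 2% DMSO. Stopped with 600 uM cold SAM; 3H-peptide captured on streptavidin Flashplate; IC50 by curve fit.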

T1 sequence (Q9NRG4 whole entry): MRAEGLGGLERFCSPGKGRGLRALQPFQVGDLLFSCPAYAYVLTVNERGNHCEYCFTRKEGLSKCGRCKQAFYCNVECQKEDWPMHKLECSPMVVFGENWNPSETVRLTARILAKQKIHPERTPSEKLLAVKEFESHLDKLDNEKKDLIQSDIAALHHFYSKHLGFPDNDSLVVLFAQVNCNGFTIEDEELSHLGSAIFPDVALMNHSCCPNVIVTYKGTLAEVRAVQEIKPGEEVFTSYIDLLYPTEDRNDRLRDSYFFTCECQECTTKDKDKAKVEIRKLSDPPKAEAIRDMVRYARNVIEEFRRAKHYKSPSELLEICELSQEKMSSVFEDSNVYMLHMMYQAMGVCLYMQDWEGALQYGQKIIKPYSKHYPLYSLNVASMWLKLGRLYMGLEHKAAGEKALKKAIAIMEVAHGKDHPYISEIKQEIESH

Row | IC50 [µM] | SMILES
1 | 27.5 | C[C@@H]1CN(Cc2ccccc2Cl)C[C@H]1NC(=O)c1cc(C2CC2)on1 (racemic) [compound 142, (±)-trans-N-1-[(2-chlorophenyl)methyl]-4-methylpyrrolidin-3-yl]-5-cyclopropyl-1,2-oxazole-3-carboxamide]
2 | 37 | C[C@@H]1CN(Cc2ccc(N(C)C)cc2)C[C@H]1NC(=O)c1cc(C2CC2)on1 (racemic) [compound 148, (±)-trans-5-cyclopropyl-N-[1-{[4-(dimethyl-amino)phenyl]methyl}-4-methylpyrrolidin-3-yl]-1,2-oxazole-3-carboxamide]
3 | 45.6 | COc1ccc(CN2C[C@@H](C)[C@H](NC(=O)c3cc(C4CC4)on3)C2)cc1 (racemic) [compound 149, (±)-trans-5-cyclopropyl-N-[1-[(4-methoxy-phenyl)methyl]-4-methylpyrrolidin-3-yl]-1,2-oxazole-3-carboxamide]
4 | > 50 | C[C@@H]1CN(Cc2cc3ccccc3s2)C[C@H]1NC(=O)c1cc(C2CC2)on1 (racemic) [compound 152, (±)-trans-N-[1-(1-benzothiophen-2-ylmethyl)-4-methyl-pyrrolidin-3-yl]-5-cyclopropyl-1,2-oxazole-3-carboxamide]
5 | > 50 | C[C@@H]1CN(CC2CCC2)C[C@H]1NC(=O)c1cc(C2CC2)on1 (racemic) [compound 156, (±)-trans-N-[1-(cyclobutyl-methyl)-4-methylpyrrolidin-3-yl]-5-cyclopropyl-1,2-oxazole-3-carboxamide]
6 | > 50 | C[C@@H]1CN(CC2CCN(C)CC2)C[C@H]1NC(=O)c1cc(C2CC2)on1 (racemic) [compound 158, (±)-trans-5-cyclopropyl-N-[4-methyl-1-[(1-methylpiperidin-4-yl)methyl]pyrrolidin-3-yl]-1,2-oxazole-3-carboxamide]
7 | > 50 | C[C@@H]1CN(Cc2ccnc3ccccc23)C[C@H]1NC(=O)c1cc(C2CC2)on1 (racemic) [compound 159, (±)-trans-5-cyclopropyl-N-[4-methyl-1-(quinolin-4-ylmethyl)pyrrolidin-3-yl]-1,2-oxazole-3-carboxamide]
8 | > 50 | C[C@@H]1CN(Cc2c[nH]c3ccccc23)C[C@H]1NC(=O)c1cc(C2CC2)on1 (racemic) [compound 160, (±)-trans-5-cyclopropyl-N-[1-(1H-indol-3-ylmethyl)-4-methyl-pyrrolidin-3-yl]-1,2-oxazole-3-carboxamide]
9 | > 50 | C[C@@H]1CN(Cc2ccc(-c3cc(Cl)ccc3Cl)o2)C[C@H]1NC(=O)c1cc(C2CC2)on1 (racemic) [compound 171, (±)-trans-5-cyclopropyl-N-[1-{[5-(2,5-dichlorophenyl)furan-2-yl]methyl}-4-methylpyrrolidin-3-yl]-1,2-oxazole-3-carboxamide]
10 | 29.5 | C[C@@H]1CN(Cc2ccc(N3CCCC3)cc2)C[C@H]1NC(=O)c1cc(C2CC2)on1 (racemic) [compound 172, (±)-trans-5-cyclopropyl-N-[4-methyl-1-{[4-(pyrrolidin-1-yl)phenyl]methyl}pyrrolidin-3-yl]-1,2-oxazole-3-carboxamide]
11 | > 50 | COc1ncc(CN2C[C@@H](C)[C@H](NC(=O)c3cc(C4CC4)on3)C2)cc1Br (racemic) [compound 174, (±)-trans-N-[1-[(5-bromo-6-methoxypyridin-3-yl)methyl]-4-methylpyrrolidin-3-yl]-5-cyclopropyl-1,2-oxazole-3-carboxamide]

More lines, now with the values behind:

Row | SMILES | IC50 [µM]
12 | CN1C[C@H](NC(=O)c2cc(C3CC3)on2)[C@@H](C2CC2)C1 (racemic) [compound 141, (±)-trans-5-cyclopropyl-N-[4-cyclopropyl-1-methylpyrrolidin-3-yl]-1,2-oxazole-3-carboxamide] | > 50
13 | CC(C)CCN1C[C@@H](C)[C@H](NC(=O)c2cc(C3CC3)on2)C1 (racemic) [compound 143, (±)-trans-5-cyclopropyl-N-[4-methyl-1-(3-methylbutyl)pyrrolidin-3-yl]-1,2-oxazole-3-carboxamide] | > 50
14 | CN1C[C@H](NC(=O)c2cc(C3CC3)on2)[C@@H](C(C)(C)C)C1 (racemic) [compound 144, (±)-trans-N-[4-tert-butyl-1-methylpyrrolidin-3-yl]-5-cyclopropyl-1,2-oxazole-3-carboxamide] | > 50
15 | CC(C)N1C[C@H](NC(=O)c2cc(C3CC3)on2)[C@@H](C(C)(C)C)C1 (racemic) [compound 146, (±)-trans-N-[4-tert-butyl-1-(propan-2-yl)pyrrolidin-3-yl]-5-cyclopropyl-1,2-oxazole-3-carboxamide] | > 50
16 | CCC[C@H]1CN(C)C[C@@H]1NC(=O)c1cc(C2CC2)on1 (racemic) [compound 150, (±)-trans-5-cyclopropyl-N-[1-methyl-4-propylpyrrolidin-3-yl]-1,2-oxazole-3-carboxamide] | 44.9
17 | CCC[C@H]1CN(C(C)C)C[C@@H]1NC(=O)c1cc(C2CC2)on1 (racemic) [compound 151, (±)-trans-5-cyclopropyl-N-[1-(propan-2-yl)-4-propylpyrrolidin-3-yl]-1,2-oxazole-3-carboxamide] | > 50
18 | CC(C)C[C@H]1CN(C)C[C@@H]1NC(=O)c1cc(C2CC2)on1 (racemic) [compound 153, (±)-trans-5-cyclopropyl-N-[1-methyl-4-(2-methylpropyl)pyrrolidin-3-yl]-1,2-oxazole-3-carboxamide] | 39.1
19 | CC(C)C[C@H]1CN(C(C)C)C[C@@H]1NC(=O)c1cc(C2CC2)on1 (racemic) [compound 154, (±)-trans-5-cyclopropyl-N-[4-(2-methylpropyl)-1-(propan-2-yl)pyrrolidin-3-yl]-1,2-oxazole-3-carboxamide] | > 50
20 | C[C@H]1CN(CC2CCOC2)C[C@H]1NC(=O)c1cc(C2CC2)on1 (mixture of isomers) [compound 155, (±)-cis-5-cyclopropyl-N-[4-methyl-1-(oxolan-3-ylmethyl)pyrrolidin-3-yl]-1,2-oxazole-3-carboxamide] | 4.49
21 | CC[C@H]1CN(C)C[C@@H]1NC(=O)c1cc(C2CC2)on1 (racemic) [compound 157, (±)-trans-5-cyclopropyl-N-[4-ethyl-1-methyl-pyrrolidin-3-yl]-1,2-oxazole-3-carboxamide] | 45.3
22 | C[C@@H]1CN(CC2CCNC2)C[C@H]1NC(=O)c1cc(C2CC2)on1 (mixture of isomers) [compound 161, (±)-trans-5-cyclopropyl-N-[4-methyl-1-(pyrrolidin-3-ylmethyl)pyrrolidin-3-yl]-1,2-oxazole-3-carboxamide] | > 50
23 | C[C@H]1CN(CC2CC2)C[C@H]1NC(=O)c1cc(C2CC2)on1 (racemic) [compound 162, (±)-cis-5-cyclopropyl-N-[1-(cyclopropylmethyl)-4-methylpyrrolidin-3-yl]-1,2-oxazole-3-carboxamide] | 1.42
24 | C[C@H]1CN(CC2CCNC2)C[C@H]1NC(=O)c1cc(C2CC2)on1 (mixture of isomers) [compound 163, (±)-cis-5-cyclopropyl-N-[4-methyl-1-(pyrrolidin-3-ylmethyl)pyrrolidin-3-yl]-1,2-oxazole-3-carboxamide] | > 50
25 | C[C@H]1CN(CC2CCNCC2)C[C@H]1NC(=O)c1cc(C2CC2)on1 (racemic) [compound 164, (±)-cis-5-cyclopropyl-N-[4-methyl-1-(piperidin-4-ylmethyl)pyrrolidin-3-yl]-1,2-oxazole-3-carboxamide] | 4.78
26 | C[C@H]1CN(CC(C)(C)C)C[C@H]1NC(=O)c1cc(C2CC2)on1 (racemic) [compound 165, (±)-cis-5-cyclopropyl-N-[1-(2,2-dimethyl-propyl)-4-methylpyrrolidin-3-yl]-1,2-oxazole-3-carboxamide] | 11.3
27 | C[C@@H]1CN(C2CCS(=O)(=O)CC2)C[C@@H]1NC(=O)c1cc(C2CC2)on1 (racemic) [compound 166, (±)-cis-5-cyclopropyl-N-(1-(1,1-dioxido-tetrahydro-2H-thiopyran-4-yl)-4-methylpyrrolidin-3-yl)isoxazole-3-carboxamide] | 19.8
28 | C[C@H]1CN(CCC2CCN(C(=O)OC(C)(C)C)CC2)C[C@H]1NC(=O)c1cc(C2CC2)on1 (racemic) [compound 169, (±)-cis-tert-butyl 4-{2-[3-(5-cyclopropyl-1,2-oxazole-3-amido)-4-methylpyrrolidin-1-yl]ethyl}piperidine-1-carboxylate] | 6.92
29 | C[C@@H]1CN(CC2CCOCC2)C[C@H]1NC(=O)c1cc(C2CC2)on1 (racemic) [compound 170, (±)-trans-5-cyclopropyl-N-[4-methyl-1-(oxan-4-ylmethyl)pyrrolidin-3-yl]-1,2-oxazole-3-carboxamide] | > 50
30 | Cc1nc[nH]c1CN1C[C@@H](C)[C@H](NC(=O)c2cc(C3CC3)on2)C1 (racemic) [compound 173, (±)-trans-5-cyclopropyl-N-[4-methyl-1-[(4-methyl-1H-imidazol-5-yl)methyl]pyrrolidin-3-yl]-1,2-oxazole-3-carboxamide] | > 50
31 | C[C@H]1CN(CC2CCOCC2)C[C@H]1NC(=O)c1cc(C2CC2)on1 (racemic) [compound 175, (±)-cis-5-cyclopropyl-N-[4-methyl-1-(oxan-4-ylmethyl)pyrrolidin-3-yl]-1,2-oxazole-3-carboxamide] | 3.95
32 | CC(C)[C@H]1CN(C)C[C@@H]1NC(=O)c1cc(C2CC2)on1 (racemic) [compound 177, (±)-trans-5-cyclopropyl-N-[1-methyl-4-(propan-2-yl)pyrrolidin-3-yl]-1,2-oxazole-3-carboxamide] | > 50
33 | CC(C)[C@H]1CN(C(C)C)C[C@@H]1NC(=O)c1cc(C2CC2)on1 (racemic) [compound 178, (±)-trans-N-[1,4-bis(propan-2-yl)pyrrolidin-3-yl]-5-cyclopropyl-1,2-oxazole-3-carboxamide] | > 50
